Measured values as given in patent publication US20070128727A1, “Methods for differentiation of embryonic stem cells” (priority 2005, published 2007).

Experiments:
Assay type in all cases: cell-based, mouse
[1] = test system: embryoid bodies from E14Tg2A embryonic stem cells; assay: Differentiation of adipocytes from embryoid bodies (oil-red-O staining, morphology); conditions: ATRA treated vs vehicle treated cultures, same differentiation process
Description: (§1) Mouse embryonic stem (ES) cells were used as the source of embryoid bodies (EBs). E14Tg2A cells were trypsinized and made into suspension in Glasgow Minimum essential medium containing 10% fetal bovine serum (growth medium). Cells were counted under a microscope using a haemocytometer, and were diluted to a concentration on 10^5 cells/mi. During cell passages, 1000 U/ml of leukemia inhibitory factor (LIF) was added to prevent differentiation.
To make EBs, cell suspensions after trypsinization were made into hanging droplets (20 μl) onto the cover of a bacteriological petri dish. The bottom of the dish was filled with PBS.
20 μl droplets of cells in suspension were pipetted onto the cover of a 100 mm bacteriological petri dish. […]
Two days afterwards, the droplets containing EBs were collected by adding medium to the cover and equally distributed onto 2 gelatinized (precoated with 0.1% gelatin) 100 mm petri dishes. […] After treating the cells for 8 days, cells were removed from the dish, counted with a hemocytometer and plated onto gelatinized 6-well culture plates at 10^4/cm^2. […]
ATRA treated cultures and vehicle treated control cultures underwent the same differentiation process as described in the Methods. […] The relative mass of specific RNA was calculated by the comparative cycle of threshold detection method according to the manufacturer's instruction. […]

MESC = assay: ATRA effects on growth of MESC (Alamar blue cell proliferation); conditions: ATRA 10^-6 M for three days, vs 0.1% DMSO vehicle, 500 cells/well
Description: as §1
FIG. 1. ATRA effects on growth of MESC. Cells were plated at 500/well in a 96-well culture plate. Starting on day 1, they were treated with ATRA (10^−6 M) for three days with replacement of fresh media each day. Control samples were treated with 0.1% DMSO (vehicle). At each indicated day, Alamar blue (10 μl/0.1 ml), an indicator for cell proliferation detection, was added to each well and the fluorescence generated was read after 4 hours.

Differentiated MESC = assay: Gene expression profile by Taqman real time PCR in differentiated MESC
Description: Two days afterwards, the droplets containing EBs were collected by adding medium to the cover and equally distributed onto 2 gelatinized (precoated with 0.1% gelatin) 100 mm petri dishes. The attached EBs were treated with 10^−6 M ATRA (all-trans retinoic acid) for 3 days to initiate differentiation. Medium was then changed into growth medium with 10^−7 M insulin and 2×10^−9 M of triiodothyronine (T3) (induction medium) to continue adipocyte differentiation. Medium was changed every two days. At day 10, further stimulation of induction was made by the addition of an induction cocktail [0.5 mM isobutylmethylxanthine (IBMX), 0.1 μM dexamethasone (DEX) and 1 μM of insulin]. After treating the cells for 8 days, cells were removed from the dish, counted with a hemocytometer and plated onto gelatinized 6-well culture plates at 10^4/cm^2. Cells with minute lipid droplets (adipocytes) appeared in two days. The number of the adipocytes and the size of droplets increased over time and reached a plateau at day 10.
ATRA treated cultures and vehicle treated control cultures underwent the same differentiation process as described in the Methods. […] Total RNA was extracted, and reverse-transcribed. The relative mass of specific RNA was calculated by the comparative cycle of threshold detection method according to the manufacturer's instruction. Two independent experiments were performed using different RNA preparations from the cultures; each run of PCR was conducted in triplicate. The expression of adipocyte markers was increased while some of the osteoblast markers were decreased.

[2] = test system: embryoid body cultures from E14Tg2A cells; assay: Osteoblast differentiation, real time RT-PCR of osteoblast marker mRNA; conditions: day 31 cultures
Description: Two days afterwards, the droplets containing EBs were collected by adding medium to the cover and equally distributed onto 2 gelatinized (precoated with 0.1% gelatin) 100 mm petri dishes. Without treating with ATRA, the attached EBs were incubated in the induction medium containing 10^−7 M insulin and 2×10^−9 M T3 for 5 days.
After that, 0.3 mM of ascorbic acid phosphate (magnesium salt, Waco Chemicals, Dallas, Tex.) and 10 mM of β-glycerophosphate (Sigma-Aldrich Chemicals, St. Louis, Mo.) were added to the induction medium for an additional 9 days. At day 14, cultures were trypsinized to remove the cells and plated on to gelatin-coated 6-well culture plates at a density of 10^4 cells/cm^2. Three days after, at day 17, DEX at 10^−8 M was added to some of the wells to further induce osteoblast differentiation. Medium was replaced every 2 days throughout the culture period.
The cultures were terminated 2 weeks after at day 31 and stained for alkaline phosphatase (ALP) activity using a kit from Sigma following manufacturer's procedure (procedure No. 85). In this procedure, cells containing ALP activity, an osteoblast maker, appear in blue color. […]

[3] = test system: fully differentiated and induced cells (adipocytes from MESC); assay: Hormone induced lipolysis (glycerol release into medium); conditions: 4 hr in glucose-free DMEM; isoproterenol increasing concentrations; dibutyryl-cAMP 10^-3 M; forskolin 4×10^-5 M
Description: FIG. 4. Hormone induced lipolysis. Fully differentiated and induced cells were treated with increasing concentrations of isoproterenol in glucose-free DMEM containing 30 mg/ml of fatty acid free albumin and adenosine deaminase (1 U/ml) for 4 hr. The control samples were incubated with 10^−5 M N-(2-phenylisopropyl)-adenosine to replace the endogenous adenosine. The amount of glycerol in the medium was measured using a calorimetric kit. Differentiated and induced cells incubated with isoproterenol in 35 mm wells. B. Differentiated cells with or without induction cultures were incubated with 10^−3 M dibutyryl-cAMP or 4×10^−5 M forskolin in 60 mm diameter culture plates.

CC1=C(/C=C/C(C)=C/C=C/C(C)=C/C(=O)O)C(C)(C)CCC1 [ATRA, all-trans retinoic acid]
formation of adipocytes at end of culture [1]: formed numerous fully differentiated adipocytes | cell number (Alamar blue fluorescence) (MESC): significant lowering of the cell number was only seen at day 3 | ALBP expression, Fold Change (ATRA/Control) (Differentiated MESC; adipocyte marker): +53.2 ± 0.09 fold | HSL expression, Fold Change (ATRA/Control) (Differentiated MESC; adipocyte marker): +2.39 ± 0.17 fold | PPAR-γ expression, Fold Change (ATRA/Control) (Differentiated MESC; adipocyte marker): +1.72 ± 0.42 fold | ALP expression, Fold Change (ATRA/Control) (Differentiated MESC; osteoblast marker): −2.54 ± 0.03 fold | Collagen type 1α expression, Fold Change (ATRA/Control) (Differentiated MESC; osteoblast marker): +6.27 ± 0.26 fold | Osteocalcin expression, Fold Change (ATRA/Control) (Differentiated MESC; osteoblast marker): −5.28 ± 0.05 fold | Osteonectin expression, Fold Change (ATRA/Control) (Differentiated MESC; osteoblast marker): +2.02 ± 0.25 fold

C[C@@H]1C[C@H]2[C@@H]3CCC4=CC(=O)C=C[C@]4(C)[C@@]3(F)[C@@H](O)C[C@]2(C)[C@@]1(O)C(=O)CO [DEX, dexamethasone]
increase in expression of ALP mRNA [2]: ~2 fold | increase in expression of osteocalcin mRNA [2]: 8 fold

CCCC(=O)Nc1ncnc2c1ncn2[C@@H]1O[C@@H]2COP(=O)(O)O[C@H]2[C@H]1OC(=O)CCC [dibutyryl-cAMP]
glycerol release (lipolysis) [3]: dose-dependent increase of glycerol release

CC(C)NCC(O)c1ccc(O)c(O)c1 (stereo not shown) [isoproterenol]
glycerol release (lipolysis) [3]: dose-dependent increase of glycerol release
